This experiment in a line: Stabilization of polyesters (rancimate, conductivity of separation products). As to conditions: 0.20% stabilizer; 1 hour under pure oxygen at 290° C.; without stabilizer 47. The procedure:
2.5 kg of a polyester which has been dried for 12 hours at 120° C. in a vacuum drying oven (Polyclear® T86, of Hoechst) is charged with the stabilizers listed in Table 23 and is mixed for 2 hours in a Henschel mixer. This mixture is then extruded in a Schwabenthan extruder at a maximum of 275° C. The polymer string is then granulated. The granulate so obtained is dried for another 12 hours in a vacuum drying oven. In a double determination, 500 mg of the granulate is heated over 10 minutes to 290° C. and is stored for 1 hour under pure oxygen in a rancimate at 290° C. The resulting gaseous separation products are continuously led into an aqueous collecting solution and the conductivity (μS) of this solution is continuously measured. Low conductivity values signify that few separation products are formed, high conductivity values signify that very many separation products are formed. […]

Molecules are shown by their SMILES.

Molecule `CC(C)(C)c1cc2c(c(C(C)(C)C)c1)OC(=O)C2c1cccc(C#N)c1` (stereo not shown) [Compound (107)] showed a Conductivity of 34 μS.

These data come from patent US6809208B2, “3-Arylbenzofuranones with electron-withdrawing substituents as stabilizers” (Ciba Specialty Chemicals Corporation, priority 2000, dated 2004).
